Laboratory results from ChEMBL document CHEMBL1201862, “PubChem BioAssay data set” (2004).
Values belong to the compound of their own block, whether it stands above or below them. Active and inactive are the calls of the source.

Columns and labels:
Melanocortin receptor 4 = Melanocortin receptor 4 (Homo sapiens, UniProt P32245); assay: MC4R antagonist potency on cAMP, dose response, cell-based, TR-FRET, biased antagonists (AID 602298); type: functional;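 also: antagonist potency against agonist-stimulated cAMP production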
[1] = nonselective inhibitors of cellular cAMP signaling, dose response, counter-screen for MC4R biased antagonist project, cell-based, TR-FRET cAMP detection (AID 602305); type: functional;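 also: U2OS cells stimulated with forskolin near its EC80 as the cAMP inducer; potency is for inhibition of forskolin-stimulated cAMP signaling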
[2] = biological target: Latent membrane protein 1 (Human herpesvirus 4 (strain B95-8), UniProt P03230); assay: TES1-eGFP NF-kB reporter inhibition versus Tet-On dsRED, dose response, selectivity assay for LMP1 NF-kB inhibitor project, imaging, HEK293T, dual-color eGFP/dsRED, cherry-picks (AID 588398); type: functional, cell-based
HEK293 = assay: inhibitors of LMP1-driven NF-kB reporter, dose response, cell-based, HEK293, luciferase, cherry-pick (AID 588343); type: functional; settings: Homo sapiens
[3] = biological target: Dual specificity protein kinase CLK4 (Homo sapiens, UniProt Q9HAZ1); type: functional
[4] = biological target: Homeodomain-interacting protein kinase 2 (Homo sapiens, UniProt Q9H2X6); type: functional;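 also: measured within a kinome-wide kinase profiling panel, HIPK2 being one panel member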
[5] = biological target: Mitogen-activated protein kinase kinase kinase kinase 4 (Homo sapiens, UniProt O95819); type: functional
Sequence of Mitogen-activated protein kinase kinase kinase kinase 4 (O95819 whole entry): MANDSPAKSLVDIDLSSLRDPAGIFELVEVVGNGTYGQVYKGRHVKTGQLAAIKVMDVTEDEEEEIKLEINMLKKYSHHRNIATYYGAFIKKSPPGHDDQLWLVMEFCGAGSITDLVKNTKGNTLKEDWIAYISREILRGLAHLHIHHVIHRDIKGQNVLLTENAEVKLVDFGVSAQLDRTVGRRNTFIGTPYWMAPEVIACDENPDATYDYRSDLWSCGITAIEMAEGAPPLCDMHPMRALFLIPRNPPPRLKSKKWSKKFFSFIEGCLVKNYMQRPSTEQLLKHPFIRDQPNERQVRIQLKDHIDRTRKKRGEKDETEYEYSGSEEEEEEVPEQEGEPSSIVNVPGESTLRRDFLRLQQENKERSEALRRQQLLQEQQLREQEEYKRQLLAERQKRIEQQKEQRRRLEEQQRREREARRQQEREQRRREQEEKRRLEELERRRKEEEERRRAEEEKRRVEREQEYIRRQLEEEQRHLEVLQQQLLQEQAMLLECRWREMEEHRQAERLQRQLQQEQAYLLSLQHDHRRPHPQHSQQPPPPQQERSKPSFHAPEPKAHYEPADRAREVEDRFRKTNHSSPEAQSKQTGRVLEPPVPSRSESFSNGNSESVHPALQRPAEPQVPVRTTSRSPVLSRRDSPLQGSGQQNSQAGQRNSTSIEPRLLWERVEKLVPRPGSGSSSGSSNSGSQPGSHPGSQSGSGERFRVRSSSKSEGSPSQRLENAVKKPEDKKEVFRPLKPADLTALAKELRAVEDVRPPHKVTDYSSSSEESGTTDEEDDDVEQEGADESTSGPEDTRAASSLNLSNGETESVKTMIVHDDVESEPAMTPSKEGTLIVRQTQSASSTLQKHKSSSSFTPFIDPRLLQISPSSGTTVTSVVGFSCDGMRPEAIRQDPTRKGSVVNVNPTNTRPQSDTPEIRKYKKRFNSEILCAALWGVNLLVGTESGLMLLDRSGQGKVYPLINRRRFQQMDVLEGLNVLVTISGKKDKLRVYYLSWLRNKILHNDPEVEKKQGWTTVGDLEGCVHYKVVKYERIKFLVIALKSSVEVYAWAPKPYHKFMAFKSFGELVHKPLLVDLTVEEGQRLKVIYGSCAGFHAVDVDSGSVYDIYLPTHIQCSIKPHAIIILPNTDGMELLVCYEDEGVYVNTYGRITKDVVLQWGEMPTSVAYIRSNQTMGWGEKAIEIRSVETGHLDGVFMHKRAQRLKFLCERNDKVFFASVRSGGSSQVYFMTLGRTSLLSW

[6] = biological target: Serine/threonine-protein kinase pim-1 (Homo sapiens, UniProt P11309); type: functional
Sequence of Serine/threonine-protein kinase pim-1 (P11309 whole entry): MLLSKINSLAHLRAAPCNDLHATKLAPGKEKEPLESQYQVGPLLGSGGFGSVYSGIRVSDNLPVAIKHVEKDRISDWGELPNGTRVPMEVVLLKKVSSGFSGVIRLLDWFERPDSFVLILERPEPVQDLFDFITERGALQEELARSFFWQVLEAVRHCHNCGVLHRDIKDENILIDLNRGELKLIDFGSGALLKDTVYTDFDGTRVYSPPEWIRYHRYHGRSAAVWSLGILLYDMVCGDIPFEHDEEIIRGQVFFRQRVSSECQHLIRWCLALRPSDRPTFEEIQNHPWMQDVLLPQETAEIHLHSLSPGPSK

[7] = biological target: Interleukin-1 receptor-associated kinase 4 (Homo sapiens, UniProt Q9NWZ3); type: functional
Sequence of Interleukin-1 receptor-associated kinase 4 (Q9NWZ3 whole entry): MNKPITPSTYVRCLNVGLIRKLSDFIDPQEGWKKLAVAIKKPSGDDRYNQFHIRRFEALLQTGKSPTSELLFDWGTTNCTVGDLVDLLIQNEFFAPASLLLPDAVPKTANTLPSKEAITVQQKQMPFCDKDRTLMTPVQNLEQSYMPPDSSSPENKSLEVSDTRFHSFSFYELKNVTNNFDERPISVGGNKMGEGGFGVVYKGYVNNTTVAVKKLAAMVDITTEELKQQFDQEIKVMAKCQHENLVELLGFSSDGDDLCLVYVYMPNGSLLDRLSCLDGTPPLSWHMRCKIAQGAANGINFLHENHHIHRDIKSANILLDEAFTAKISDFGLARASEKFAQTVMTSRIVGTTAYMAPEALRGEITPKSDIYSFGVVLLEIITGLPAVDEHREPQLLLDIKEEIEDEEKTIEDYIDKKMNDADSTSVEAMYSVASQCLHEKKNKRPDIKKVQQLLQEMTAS

[8] = biological target: Glycogen synthase kinase-3 beta (Homo sapiens, UniProt P49841); type: functional;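 also: value comes from a broad kinome profiling panel, with GSK3B as the panel member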
Sequence of Glycogen synthase kinase-3 beta (P49841 whole entry): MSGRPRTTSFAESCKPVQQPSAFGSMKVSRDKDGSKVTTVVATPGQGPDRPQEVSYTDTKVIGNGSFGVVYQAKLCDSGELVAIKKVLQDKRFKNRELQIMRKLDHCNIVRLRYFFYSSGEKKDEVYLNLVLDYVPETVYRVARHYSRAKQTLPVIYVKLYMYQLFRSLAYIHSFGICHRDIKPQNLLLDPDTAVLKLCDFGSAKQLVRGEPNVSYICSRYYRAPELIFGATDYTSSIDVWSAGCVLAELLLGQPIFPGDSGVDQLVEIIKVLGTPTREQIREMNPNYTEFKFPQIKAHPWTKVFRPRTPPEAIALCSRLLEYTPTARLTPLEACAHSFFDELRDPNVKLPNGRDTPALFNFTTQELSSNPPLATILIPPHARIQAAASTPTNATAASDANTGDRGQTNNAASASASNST

[9] = biological target: Cell division cycle 7-related protein kinase (Homo sapiens, UniProt O00311); type: functional;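 also: value obtained from a kinome-wide kinase panel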
Sequence of Cell division cycle 7-related protein kinase (O00311 whole entry): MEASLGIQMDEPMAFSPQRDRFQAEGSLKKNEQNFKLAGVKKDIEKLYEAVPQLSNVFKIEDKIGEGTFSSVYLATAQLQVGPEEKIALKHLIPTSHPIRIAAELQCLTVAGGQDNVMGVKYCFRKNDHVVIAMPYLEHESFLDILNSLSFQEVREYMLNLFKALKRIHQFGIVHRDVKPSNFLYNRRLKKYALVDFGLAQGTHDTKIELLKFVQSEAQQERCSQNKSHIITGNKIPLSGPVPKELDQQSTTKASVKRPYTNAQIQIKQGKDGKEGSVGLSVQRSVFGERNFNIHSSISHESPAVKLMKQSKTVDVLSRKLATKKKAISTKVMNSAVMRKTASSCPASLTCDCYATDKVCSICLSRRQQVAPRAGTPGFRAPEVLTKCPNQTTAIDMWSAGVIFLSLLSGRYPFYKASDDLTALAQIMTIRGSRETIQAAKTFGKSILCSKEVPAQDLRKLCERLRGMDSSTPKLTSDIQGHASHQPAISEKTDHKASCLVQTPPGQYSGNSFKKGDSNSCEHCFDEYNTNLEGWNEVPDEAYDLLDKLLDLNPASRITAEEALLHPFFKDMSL

[10] = biological target: cAMP-dependent protein kinase catalytic subunit alpha (Homo sapiens, UniProt P17612); type: functional
[11] = biological target: T1, Corticotropin-releasing factor receptor 2/Corticotropin-releasing factor-binding protein (Homo sapiens, UniProt P24387+Q13324); assay: activators of CRF receptor 2 with binding protein – uHTS hits, confirmation (AID 602473); type: functional; settings: read-out: EC50_Mean
T1 sequence (Q13324 whole entry): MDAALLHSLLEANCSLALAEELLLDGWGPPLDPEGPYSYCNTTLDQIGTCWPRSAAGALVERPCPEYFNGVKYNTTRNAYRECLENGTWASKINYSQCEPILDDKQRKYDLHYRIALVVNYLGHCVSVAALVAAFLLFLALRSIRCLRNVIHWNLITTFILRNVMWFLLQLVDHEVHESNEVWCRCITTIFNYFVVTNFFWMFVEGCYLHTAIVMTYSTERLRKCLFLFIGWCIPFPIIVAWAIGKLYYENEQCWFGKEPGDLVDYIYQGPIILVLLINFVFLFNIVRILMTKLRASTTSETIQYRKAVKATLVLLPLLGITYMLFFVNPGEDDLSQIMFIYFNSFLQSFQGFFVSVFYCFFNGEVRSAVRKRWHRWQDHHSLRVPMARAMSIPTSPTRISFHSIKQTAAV
T1 sequence (P24387 whole entry): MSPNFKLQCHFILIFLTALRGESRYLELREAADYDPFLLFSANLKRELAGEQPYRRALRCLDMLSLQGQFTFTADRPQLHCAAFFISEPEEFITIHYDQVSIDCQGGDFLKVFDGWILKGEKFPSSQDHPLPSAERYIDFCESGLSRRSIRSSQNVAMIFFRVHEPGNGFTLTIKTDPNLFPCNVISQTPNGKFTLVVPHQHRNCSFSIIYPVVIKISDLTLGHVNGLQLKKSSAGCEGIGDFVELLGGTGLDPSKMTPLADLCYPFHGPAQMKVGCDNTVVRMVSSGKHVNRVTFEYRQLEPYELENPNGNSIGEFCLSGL

CHO = assay: cytotoxicity in TLR9-MyD88 CHO cells, dose response, cytotoxicity control for TLR9-MyD88 binding inhibitor project, cell-based, luminescence (AID 588339); type: functional, hamster; settings: Cricetulus griseus;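 also: CHO cells stably coexpressing TLR9 and MyD88 fusions from primary screen; compound exposure lasted 48 hours before viability readout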
Beta Lactamase = Beta Lactamase (Pseudomonas aeruginosa, UniProt Q932Y6); assay: beta-lactamase reporter inhibitor potency, dose response, artefact control for TLR9-MyD88 binding inhibitor project, BLA reporter cells, FRET fluorescence (AID 588341); type: cell-based;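 also: cell based assay in CHO-K1 cells stably expressing beta-lactamase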
Sequence of Beta Lactamase (Q932Y6 whole entry): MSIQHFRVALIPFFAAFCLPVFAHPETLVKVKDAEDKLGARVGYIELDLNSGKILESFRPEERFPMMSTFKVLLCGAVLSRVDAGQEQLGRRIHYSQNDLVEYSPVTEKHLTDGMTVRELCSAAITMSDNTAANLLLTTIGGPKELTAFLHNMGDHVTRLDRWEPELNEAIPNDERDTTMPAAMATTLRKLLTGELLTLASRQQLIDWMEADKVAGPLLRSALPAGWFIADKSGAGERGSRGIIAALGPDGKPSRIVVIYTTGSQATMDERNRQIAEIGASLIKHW

[12] = biological target: T2, Sentrin-specific protease 6 (Homo sapiens, UniProt Q9GZR1); assay: SAR Analysis of small molecule inhibitors of Sentrin-specific protease 6 (SENP6) using a Luminescent assay. [Related pubchem assays (depositor defined):AID2582, AID2599]; type: functional
T2 sequence (Q9GZR1 whole entry): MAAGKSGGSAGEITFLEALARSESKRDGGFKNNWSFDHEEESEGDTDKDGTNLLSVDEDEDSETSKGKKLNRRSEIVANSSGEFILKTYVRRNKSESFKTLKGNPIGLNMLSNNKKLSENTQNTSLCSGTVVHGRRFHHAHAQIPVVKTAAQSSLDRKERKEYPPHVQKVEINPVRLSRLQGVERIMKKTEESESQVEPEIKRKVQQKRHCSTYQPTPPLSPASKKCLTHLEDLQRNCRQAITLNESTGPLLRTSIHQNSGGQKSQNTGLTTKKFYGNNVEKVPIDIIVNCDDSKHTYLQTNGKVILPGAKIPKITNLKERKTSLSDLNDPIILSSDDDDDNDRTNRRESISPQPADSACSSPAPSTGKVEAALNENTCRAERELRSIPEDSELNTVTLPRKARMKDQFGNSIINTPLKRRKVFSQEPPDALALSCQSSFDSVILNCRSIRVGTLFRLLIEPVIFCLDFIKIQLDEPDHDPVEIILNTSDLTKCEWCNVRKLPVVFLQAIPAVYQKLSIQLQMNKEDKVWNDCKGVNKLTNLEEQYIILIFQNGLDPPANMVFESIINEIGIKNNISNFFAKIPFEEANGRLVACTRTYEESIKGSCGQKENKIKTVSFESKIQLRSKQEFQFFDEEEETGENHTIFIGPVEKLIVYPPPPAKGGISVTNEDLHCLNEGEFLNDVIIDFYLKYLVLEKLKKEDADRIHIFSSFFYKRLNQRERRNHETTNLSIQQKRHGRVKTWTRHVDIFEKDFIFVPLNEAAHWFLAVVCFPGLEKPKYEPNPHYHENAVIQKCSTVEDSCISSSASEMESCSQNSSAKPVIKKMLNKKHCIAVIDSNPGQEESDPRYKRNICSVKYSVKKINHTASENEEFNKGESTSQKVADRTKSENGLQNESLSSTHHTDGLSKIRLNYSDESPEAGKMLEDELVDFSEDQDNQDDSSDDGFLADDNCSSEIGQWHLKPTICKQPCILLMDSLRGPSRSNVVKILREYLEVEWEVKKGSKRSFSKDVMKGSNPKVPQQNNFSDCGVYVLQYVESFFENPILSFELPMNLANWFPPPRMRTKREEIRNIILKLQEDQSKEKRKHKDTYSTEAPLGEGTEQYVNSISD

[13] = biological target: T3, Sentrin-specific protease 8 (Homo sapiens, UniProt Q96LD8); assay: SENP8 protease inhibitors, SAR follow-up, biochemical, luminescence (AID 504501); type: functional
T3 sequence (Q96LD8 whole entry): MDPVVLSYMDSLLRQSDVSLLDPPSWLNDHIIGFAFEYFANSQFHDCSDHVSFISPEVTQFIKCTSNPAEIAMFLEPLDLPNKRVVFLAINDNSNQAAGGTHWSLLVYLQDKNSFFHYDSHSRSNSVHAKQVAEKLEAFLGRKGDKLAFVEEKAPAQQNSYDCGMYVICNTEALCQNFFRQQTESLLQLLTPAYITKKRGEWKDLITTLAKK

Caspase-3 = biological target: T4, Caspase-3 (Homo sapiens, UniProt P42574); assay: SAR Analysis of small molecule inhibitors of Sentrin-specific proteases (SENPs) using a Caspase-3 Selectivity assay. [Related pubchem assays (depositor defined):AID2540, AID2599, AID434973, AID489001]; type: functional
T4 sequence (P42574 whole entry): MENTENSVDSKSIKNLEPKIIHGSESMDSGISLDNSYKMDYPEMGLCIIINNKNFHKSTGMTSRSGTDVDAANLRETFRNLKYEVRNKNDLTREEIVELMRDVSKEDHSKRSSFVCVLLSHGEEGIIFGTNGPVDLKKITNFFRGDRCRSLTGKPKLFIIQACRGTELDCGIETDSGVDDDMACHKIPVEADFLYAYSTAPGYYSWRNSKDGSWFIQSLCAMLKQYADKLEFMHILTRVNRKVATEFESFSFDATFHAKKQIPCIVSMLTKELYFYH

[14] = biological target: T5, Sentrin-specific protease 7 (Homo sapiens, UniProt Q9BQF6); assay: SENP7 protease inhibitors, SAR follow-up, biochemical, luminescence (AID 504497); type: functional
T5 sequence (Q9BQF6 whole entry): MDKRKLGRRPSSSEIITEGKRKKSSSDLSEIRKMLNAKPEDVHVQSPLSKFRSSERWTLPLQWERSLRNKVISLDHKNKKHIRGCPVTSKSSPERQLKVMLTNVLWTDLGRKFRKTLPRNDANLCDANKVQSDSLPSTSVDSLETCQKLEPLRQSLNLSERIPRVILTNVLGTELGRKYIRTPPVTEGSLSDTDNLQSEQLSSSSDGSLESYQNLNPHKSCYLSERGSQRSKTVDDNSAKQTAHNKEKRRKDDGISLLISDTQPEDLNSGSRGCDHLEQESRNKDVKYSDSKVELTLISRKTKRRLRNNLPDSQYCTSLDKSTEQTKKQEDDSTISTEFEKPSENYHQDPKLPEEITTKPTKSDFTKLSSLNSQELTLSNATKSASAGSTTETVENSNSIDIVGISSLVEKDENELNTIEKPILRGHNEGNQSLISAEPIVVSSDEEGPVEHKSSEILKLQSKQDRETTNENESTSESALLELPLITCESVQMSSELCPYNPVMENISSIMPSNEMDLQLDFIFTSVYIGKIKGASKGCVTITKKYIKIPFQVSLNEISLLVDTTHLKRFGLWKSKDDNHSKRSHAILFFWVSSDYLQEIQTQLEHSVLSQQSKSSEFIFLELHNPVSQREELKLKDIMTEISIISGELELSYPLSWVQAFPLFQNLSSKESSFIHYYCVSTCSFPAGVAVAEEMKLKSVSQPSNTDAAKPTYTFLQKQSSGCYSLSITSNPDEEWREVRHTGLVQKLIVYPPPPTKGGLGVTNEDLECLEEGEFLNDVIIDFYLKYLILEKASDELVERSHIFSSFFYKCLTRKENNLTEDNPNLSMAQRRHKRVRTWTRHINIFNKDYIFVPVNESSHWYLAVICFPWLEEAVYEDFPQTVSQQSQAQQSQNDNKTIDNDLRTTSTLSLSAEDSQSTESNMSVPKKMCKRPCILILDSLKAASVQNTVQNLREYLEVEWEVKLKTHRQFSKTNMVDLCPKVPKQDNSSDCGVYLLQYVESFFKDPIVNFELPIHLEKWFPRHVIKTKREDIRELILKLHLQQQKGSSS

LIM domain kinase 1 = LIM domain kinase 1 (Homo sapiens, UniProt P53667); assay: Navigating the Kinome. Panel member name: LIMK1; type: functional
[15] = biological target: Serine/threonine-protein kinase Chk1 (Homo sapiens, UniProt O14757); type: functional;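 also: measured as one member of a kinome-wide kinase profiling panel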
Sequence of Serine/threonine-protein kinase Chk1 (O14757 whole entry): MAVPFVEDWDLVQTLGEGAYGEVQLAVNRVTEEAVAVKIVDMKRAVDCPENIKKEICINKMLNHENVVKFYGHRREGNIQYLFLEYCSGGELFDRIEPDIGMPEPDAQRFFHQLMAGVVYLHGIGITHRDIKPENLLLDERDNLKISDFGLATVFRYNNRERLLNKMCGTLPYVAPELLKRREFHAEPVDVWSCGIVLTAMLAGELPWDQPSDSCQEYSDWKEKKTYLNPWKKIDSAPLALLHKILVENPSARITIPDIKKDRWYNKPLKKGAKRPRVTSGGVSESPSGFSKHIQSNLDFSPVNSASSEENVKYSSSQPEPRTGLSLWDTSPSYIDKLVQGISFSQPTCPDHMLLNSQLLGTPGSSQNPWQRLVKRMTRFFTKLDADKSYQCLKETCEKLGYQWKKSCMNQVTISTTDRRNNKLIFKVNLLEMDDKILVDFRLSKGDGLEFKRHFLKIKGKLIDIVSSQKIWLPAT

[16] = biological target: T6, Neuropeptides B/W receptor type 1 (Homo sapiens, UniProt P48145); assay: GPR7 antagonist potency, late-stage follow-up, cell-based, fluorescence, dose response, set 6 (AID 588583); type: functional
T6 sequence (P48145 whole entry): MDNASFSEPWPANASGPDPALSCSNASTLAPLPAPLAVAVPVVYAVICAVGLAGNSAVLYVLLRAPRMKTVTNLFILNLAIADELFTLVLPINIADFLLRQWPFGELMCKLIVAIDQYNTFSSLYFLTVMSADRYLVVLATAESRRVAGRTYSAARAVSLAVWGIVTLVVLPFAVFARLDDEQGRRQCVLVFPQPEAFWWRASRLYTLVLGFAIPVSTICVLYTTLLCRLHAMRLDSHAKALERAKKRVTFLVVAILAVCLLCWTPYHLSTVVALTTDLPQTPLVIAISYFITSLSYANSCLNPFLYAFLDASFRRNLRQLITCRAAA

[17] = biological target: Melanin-concentrating hormone receptor 1 (Homo sapiens, UniProt Q99705); assay: Late-stage fluorescence-based counterscreen for antagonists of the G-protein coupled receptor 7 (GPR7): cell-based dose response assay to identify antagonists of the melanin-concentrating hormone receptor 1 (MCHR1) Set 6.; type: functional
Sequence of Melanin-concentrating hormone receptor 1 (Q99705 whole entry): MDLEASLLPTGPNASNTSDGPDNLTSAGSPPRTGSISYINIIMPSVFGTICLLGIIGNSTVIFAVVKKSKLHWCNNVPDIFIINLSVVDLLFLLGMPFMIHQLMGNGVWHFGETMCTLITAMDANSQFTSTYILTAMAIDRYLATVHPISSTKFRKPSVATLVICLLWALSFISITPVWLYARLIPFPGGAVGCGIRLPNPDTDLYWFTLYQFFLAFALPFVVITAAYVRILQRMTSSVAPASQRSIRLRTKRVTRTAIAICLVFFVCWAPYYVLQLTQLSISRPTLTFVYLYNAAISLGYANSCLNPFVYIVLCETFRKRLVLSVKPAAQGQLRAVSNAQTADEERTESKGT

[18] = biological target: Leukocyte tyrosine kinase receptor (Homo sapiens, UniProt P29376); assay: Navigating the Kinome. Panel member name: LTK; type: functional
Sequence of Leukocyte tyrosine kinase receptor (P29376 whole entry): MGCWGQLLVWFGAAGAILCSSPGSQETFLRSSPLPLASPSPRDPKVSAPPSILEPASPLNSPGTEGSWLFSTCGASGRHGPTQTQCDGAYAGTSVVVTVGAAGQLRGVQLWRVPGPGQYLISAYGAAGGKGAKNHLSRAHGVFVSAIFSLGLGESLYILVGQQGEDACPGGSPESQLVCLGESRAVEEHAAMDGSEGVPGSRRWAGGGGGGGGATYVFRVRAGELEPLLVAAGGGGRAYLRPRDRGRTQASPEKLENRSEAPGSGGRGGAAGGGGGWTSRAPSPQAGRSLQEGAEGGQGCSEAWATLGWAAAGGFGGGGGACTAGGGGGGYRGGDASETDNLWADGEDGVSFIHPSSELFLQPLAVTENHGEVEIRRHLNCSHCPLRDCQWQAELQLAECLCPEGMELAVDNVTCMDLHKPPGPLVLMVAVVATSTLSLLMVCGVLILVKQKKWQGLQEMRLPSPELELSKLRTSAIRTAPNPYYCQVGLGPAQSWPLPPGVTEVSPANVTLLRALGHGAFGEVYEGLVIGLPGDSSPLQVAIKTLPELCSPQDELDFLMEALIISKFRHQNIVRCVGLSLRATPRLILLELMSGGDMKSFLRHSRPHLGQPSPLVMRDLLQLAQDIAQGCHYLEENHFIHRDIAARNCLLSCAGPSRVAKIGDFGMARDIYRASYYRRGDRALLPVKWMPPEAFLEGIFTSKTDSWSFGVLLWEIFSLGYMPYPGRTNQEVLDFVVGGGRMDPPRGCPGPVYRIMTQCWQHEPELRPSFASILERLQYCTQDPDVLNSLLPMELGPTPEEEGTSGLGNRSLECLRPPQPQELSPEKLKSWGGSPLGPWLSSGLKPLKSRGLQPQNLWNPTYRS

[19] = biological target: Tyrosine-protein kinase JAK2 (Homo sapiens, UniProt O60674); type: functional;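 also: JAK2 tested as one member of a kinase panel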
[20] = biological target: Vascular endothelial growth factor receptor 2 (Homo sapiens, UniProt P35968); type: functional
[21] = biological target: Leucine-rich repeat serine/threonine-protein kinase 2 (Homo sapiens, UniProt Q5S007); type: functional;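 also: value from a broad kinome-wide panel profiling study in which LRRK2 was one of the kinases tested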
[22] = biological target: cAMP-dependent protein kinase catalytic subunit PRKX (Homo sapiens, UniProt P51817); type: functional

SMILES: CN1CCC(Oc2ccccc2Sc2ccc(C(F)(F)F)cc2)CC1
- IC50 (Melanocortin receptor 4): > 64600 nM (inactive)
- IC50 [1]: > 64600 nM (inactive)

SMILES: CC(=O)N1c2ccc(S(=O)(=O)N3CCC(C(=O)N4CCN(c5ccc(Cl)cc5)CC4)CC3)cc2CC1C (stereo not drawn)
- AC50 [2]: 108000 nM (active)
- AC50 (HEK293): 1010 nM (active)

SMILES: CC(O)CN(CC(C)O)c1ccc2c(c1)Cc1cc([N+](=O)[O-])ccc1-2 (stereo not drawn)
- EC50 [11]: 870 nM (active)
- IC50 (CHO): > 49800 nM (inactive)
- IC50 (Beta Lactamase): 5090 nM (active)

SMILES: CC(=O)c1c(C)c2cnc(Nc3ccc(N4CCNCC4)cn3)nc2n(C2CCCC2)c1=O [PALBOCICLIB]
- Ki [18]: > 2510 nM (inactive)
- Ki [19]: > 2510 nM (inactive)
- Ki [20]: > 2000 nM (inactive)
- Ki [21]: 2510 nM (active)
- Ki [22]: 2510 nM (active)

Further lines, with some results ahead:

- Ki [3]: 3.98 nM (active)
- Ki [4]: 100 nM (active)
- Ki [5]: 1580 nM (active)
- Ki [6]: 501 nM (active)
- Ki [7]: > 10000 nM (inactive)
- Ki [8]: 15.8 nM (active)
- Ki [9]: 10 nM (active)
- Ki [10]: 1000 nM (active)
SMILES: CCCCNc1c(-c2ccc3[nH]ncc3c2)nc2ncccn12

- IC50 [12]: > 99000 nM (inactive)
- IC50 (Caspase-3): > 99000 nM (inactive)
- IC50 [14]: > 99000 nM (inactive)
SMILES: Clc1ccc(/C=N/Nc2cc(N3CCOCC3)nc(N3CCOCC3)n2)c(Cl)c1
- IC50 [13]: > 99000 nM (inactive)

- Ki (LIM domain kinase 1): 2000 nM (active)
- Ki [15]: 2510 nM (active)
SMILES: Clc1ccc2c(c1)NC1(CCCCC1)N2

- IC50 [16]: 974 nM (active)
- IC50 [17]: 974 nM (active)
SMILES: COc1ccc(-c2c(Br)cnn(Cc3cccc4ccccc34)c2=O)cc1
